Experimental data: patent US20240285571A1, “METHODS OF TREATING BONE INFECTIONS” (MICROBION CORPORATION, priority 2020, published 2024)
Each block holds one compound with its values, some of them ahead of it.

How the values were obtained:
[1] = test system: vancomycin-intermediate Staphylococcus aureus; assay: Broth microdilution MIC (Example 6); type: cell-based
Protocol: (§1) Test Compounds: The test agents BisEDT (MB-1-B3; Lot No. ED268-1-11-01), MB-2B, and MB-6 were stored at room temperature, in the dark, until assayed. The solvent and diluent for the test agents was DMSO (Sigma; St. Louis, MO; Lot No. SHBB9319V) and the prepared stock concentration was 6,464 μg/mL (101× the final test concentration).
(§2) Test compounds were evaluated at a concentration range of 0.06-64 μg/mL. For Gram-negative test isolates, amikacin and ceftazidime (alone and with clavulanate at a fixed concentration of 4 μg/mL) were evaluated over a concentration range of 0.06-64 μg/mL; meropenem and levofloxacin were evaluated over a concentration range of 0.008-8 μg/mL. For the testing of S. aureus, clindamycin, daptomycin, levofloxacin and vancomycin were evaluated at a concentration range of 0.008-8 μg/mL; linezolid was tested from 0.03-32 μg/mL.
(§3) Media: Cation-adjusted Mueller Hinton broth (CAMHB; BD; Lot No. 8190586) was used as the medium for testing (2, 3). For testing daptomycin, calcium was supplemented with […] Ca^2+, resulting in a final concentration of […] Ca^2+ (2, 3).
(§4) MIC Assay Procedure: MIC values were determined using a broth microdilution procedure described by CLSI (2, 3). Automated liquid handlers (Multidrop 384, Labsystems, Helsinki, Finland; Biomek 2000 and Biomek F X, Beckman Coulter, Fullerton CA) were used to conduct serial dilutions and liquid transfers.
(§5) To prepare the drug mother plates, which would provide the serial drug dilutions for the replicate daughter plates, the wells of columns 2 through 12 of standard 96-well microdilution plates (Costar 3795) were filled with 150 μl of the appropriate diluent for each row of drug. The test articles and comparator compounds (300 μl at 101× the highest concentration to be tested) were dispensed into the appropriate wells in column 1. The Biomek 2000 was then used to make 2-fold serial dilutions in the mother plates from column 1 through column 11. The wells of column 12 contained no drug and served as the organism growth control wells for the assay.
(§6) The daughter plates were loaded with 190 μL per well of RPMI using the Multidrop 384. The test panels were prepared on the Biomek FX instrument which transferred 2 μL of drug solution from each well of a mother plate to the corresponding well of each daughter plate in a single step.
(§7) A standardized inoculum of each test organism was prepared per CLSI methods to equal a 0.5 McFarland standard, followed by a dilution of 1:20. The plates were then inoculated with 10 μL of the diluted inoculum using the Biomek 2000 from low to high drug concentration resulting in a final concentration of approximately 5×10^5 CFU/mL.
(§8) Plates were stacked 3-4 high, covered with a lid on the top plate, placed into plastic bags, and incubated at 35° C. for 16 to 20 hr (vancomycin was read for S. aureus after 24 hr incubation time). The MIC was recorded as the lowest concentration of drug that inhibited visible growth of the organism.

[2] = test system: relevant ATCC QC organisms; assay: Broth microdilution MIC, QC (Example 6); type: cell-based; details: S. aureus ATCC 29213
Protocol: as §1, §2
Organisms: The test organisms as shown in Tables 11-15 consisted of clinical isolates from the Micromyx (MMX) repository and reference strains from the American Type Culture Collection (ATCC; Manassas, VA), National Collection of Type Cultures (NCTC; Public Health England, Salisbury, UK), the Network on Antimicrobial Resistance in Staphylococcus aureus (NARSA; BEI Resources, Manassas, VA), and the Centers for Disease Control and Prevention (CDC; Atlanta, GA). The test organisms were maintained frozen at −80° C. Prior to testing, the isolates were cultured on Tryptic Soy Agar with 5% sheep blood (BAP; Becton Dickson [BD]/BBL; Sparks, MD; Lot Nos. 9080650 and 9108563) at 35° C. Relevant ATCC quality control (QC) organisms (Table 16) were included during testing in accordance with CLSI guidelines (3). Further details on the genetic characterization of the isolates where available can be found in Table 17.
as §3, §4, §5, §6, §7, §8

S. aureus (MRSA, MSSA) = assay: MIC of baseline clinical isolates (Example 8); type: cell-based; details: Staphylococcus aureus, MRSA baseline isolates (N′ = 4), central laboratory, mITT
Protocol: (§9) Microbiology was assessed on Day 1 and at the time of any subsequent surgical procedure at the index site. Samples were collected from the infected bone site or involved tissue adjacent to any implant(s), swabs of the deep infection site, and the superficial tissue/wound closure/sinus tract site. […] Parallel sets of samples were analyzed by the local clinical site laboratory to guide patient antibiotic treatment.

S. epidermidis = assay: MIC of baseline clinical isolates (Example 8); type: cell-based; details: Staphylococcus epidermidis baseline isolates (N′ = 5), central laboratory, mITT
Protocol: as §9

Staphylococcus arlettae = assay: MIC of baseline clinical isolates (Example 8); type: cell-based; details: Staphylococcus arlettae baseline isolates (N′ = 1), central laboratory, mITT
Protocol: as §9

[3] = test system: Staphylococcus haemolyticus; assay: MIC of baseline clinical isolates (Example 8); type: cell-based; details: Staphylococcus haemolyticus baseline isolates (N′ = 1), central laboratory, mITT
Protocol: as §9

Staphylococcus hominis = assay: MIC of baseline clinical isolates (Example 8); type: cell-based; details: Staphylococcus hominis baseline isolates (N′ = 1), central laboratory, mITT
Protocol: as §9

[4] = test system: Staphylococcus lugdunensis; assay: MIC of baseline clinical isolates (Example 8); type: cell-based; details: Staphylococcus lugdunensis baseline isolates (N′ = 3), central laboratory, mITT
Protocol: as §9

Staphylococcus pasteuri = assay: MIC of baseline clinical isolates (Example 8); type: cell-based; details: Staphylococcus pasteuri baseline isolates (N′ = 1), central laboratory, mITT
Protocol: as §9

[5] = test system: Corynebacterium amycolatum; assay: MIC of baseline clinical isolates (Example 8); type: cell-based; details: Corynebacterium amycolatum baseline isolates (N′ = 1), central laboratory, mITT
Protocol: (§10) Microbiology was assessed on Day 1 and at the time of any subsequent surgical procedure at the index site. Samples were collected from the infected bone site or involved tissue adjacent to any implant(s), swabs of the deep infection site, and the superficial tissue/wound closure/sinus tract site. Isolation and identification of aerobic and anerobic bacteria was conducted at a central microbiology laboratory (IHMA, Schaumburg, IL) and susceptibility of the isolates to MBN-101 (BisEDT) and comparator agents was performed per Clinical and Laboratory Standards Institute (CLSI). Parallel sets of samples were analyzed by the local clinical site laboratory to guide patient antibiotic treatment.

Corynebacterium jeikeium = assay: MIC of baseline clinical isolates (Example 8); type: cell-based; details: Corynebacterium jeikeium baseline isolates (N′ = 2), central laboratory, mITT
Protocol: as §10

[6] = test system: Corynebacterium resistens; assay: MIC of baseline clinical isolates (Example 8); type: cell-based; details: Corynebacterium resistens baseline isolates (N′ = 1), central laboratory, mITT
Protocol: as §10

Dermabacter hominis = assay: MIC of baseline clinical isolates (Example 8); type: cell-based; details: Dermabacter hominis baseline isolates (N′ = 1), central laboratory, mITT
Protocol: as §10

Streptococcus oralis = assay: MIC of baseline clinical isolates (Example 8); type: cell-based; details: Streptococcus oralis baseline isolates (N′ = 1), central laboratory, mITT
Protocol: as §10

[7] = test system: non-speciated Corynebacterium; assay: MIC of baseline clinical isolates (Example 8); type: cell-based; details: Corynebacterium non-speciated baseline isolates (N′ = 2), central laboratory, mITT
Protocol: as §10

[8] = test system: relevant ATCC QC organisms; details: S. aureus ATCC 29213; CLSI established QC range; cited from earlier work
Actinomyces turicensis = assay: MIC of baseline clinical isolates (Example 8); type: cell-based; details: Actinomyces turicensis baseline isolates (N′ = 1), central laboratory, mITT
Protocol: as §9

Anaerococcus murdochii = assay: MIC of baseline clinical isolates (Example 8); type: cell-based; details: Anaerococcus murdochii baseline isolates (N′ = 1), central laboratory, mITT
Protocol: as §9

Clostridium sphenoides = assay: MIC of baseline clinical isolates (Example 8); type: cell-based; details: Clostridium sphenoides baseline isolates (N′ = 1), central laboratory, mITT
Protocol: as §9

[9] = test system: Cutibacterium [Propionibacterium] acnes; assay: MIC of baseline clinical isolates (Example 8); type: cell-based; details: Cutibacterium (Proprionibacterium) acnes baseline isolates (N′ = 3), central laboratory, mITT
Protocol: as §9

F. magna = assay: MIC of baseline clinical isolates (Example 8); type: cell-based; details: Finegoldia magna baseline isolates (N′ = 4), central laboratory, mITT
Protocol: as §9

Peptoniphilus gorbachii = assay: MIC of baseline clinical isolates (Example 8); type: cell-based; details: Peptoniphilus gorbachii baseline isolates (N′ = 1), central laboratory, mITT
Protocol: as §9

[10] = test system: non-speciated Anaerococcus; assay: MIC of baseline clinical isolates (Example 8); type: cell-based; details: Anaerococcus non-speciated baseline isolates (N′ = 1), central laboratory, mITT
Protocol: as §9

[11] = S. aureus isolate NRS 1 (hVISA)
[12] = S. aureus isolate NRS 24 (hVISA)

SMILES: CC(=O)NC[C@H]1CN(c2ccc(N3CCOCC3)c(F)c2)C(=O)O1 [LZD]
MIC [1, 11]: 1 µg/mL
MIC ([1]; S. aureus isolate NRS 2): 4 µg/mL
MIC ([1]; S. aureus isolate NRS 3): 1 µg/mL
MIC ([1]; S. aureus isolate NRS 4): 1 µg/mL
MIC ([1]; S. aureus isolate NRS 13): 2 µg/mL
MIC ([1]; S. aureus isolate NRS 18): 1 µg/mL
MIC ([1]; S. aureus isolate NRS 22): 1 µg/mL
MIC [1, 12]: 2 µg/mL
MIC ([1]; S. aureus isolate NRS 27): 2 µg/mL
MIC [2]: 4 µg/mL
Mean MIC (S. aureus (MRSA, MSSA)): 1.25 mg/L
n (% resistant) (S. aureus (MRSA, MSSA)): 0 (0.0) n (%)
Mean MIC (S. epidermidis): 0.80 mg/L
n (% resistant) (S. epidermidis): 0 (0.0) n (%)
Mean MIC (Staphylococcus arlettae): 2.00 mg/L
n (% resistant) (Staphylococcus arlettae): 0 (0.0) n (%)
Mean MIC [3]: 1.00 mg/L
n (% resistant) [3]: 0 (0.0) n (%)
Mean MIC (Staphylococcus hominis): 0.50 mg/L
n (% resistant) (Staphylococcus hominis): 0 (0.0) n (%)
Mean MIC [4]: 0.83 mg/L
n (% resistant) [4]: 0 (0.0) n (%)
Mean MIC (Staphylococcus pasteuri): 1.00 mg/L
n (% resistant) (Staphylococcus pasteuri): 0 (0.0) n (%)
Mean MIC [5]: 0.12 mg/L
n (% resistant) [5]: 0 (0.0) n (%)
Mean MIC (Corynebacterium jeikeium): 0.38 mg/L
n (% resistant) (Corynebacterium jeikeium): 0 (0.0) n (%)
Mean MIC [6]: 0.25 mg/L
n (% resistant) [6]: 0 (0.0) n (%)
Mean MIC (Dermabacter hominis): 0.50 mg/L
n (% resistant) (Dermabacter hominis): 0 (0.0) n (%)
Mean MIC (Streptococcus oralis): 1.00 mg/L
n (% resistant) (Streptococcus oralis): 0 (0.0) n (%)
Mean MIC [7]: 0.18 mg/L
n (% resistant) [7]: 0 (0.0) n (%)
MIC QC range (in parentheses) [8]: (1-4) μg/mL

Mean MIC (Actinomyces turicensis): 16.00 mg/L
Mean MIC (Anaerococcus murdochii): 1.00 mg/L
Mean MIC (Clostridium sphenoides): 0.32 mg/L
Mean MIC [9]: 16.00 mg/L
Mean MIC (F. magna): 0.56 mg/L
Mean MIC (Peptoniphilus gorbachii): 0.50 mg/L
Mean MIC [10]: 16.00 mg/L
SMILES: Cc1ncc([N+](=O)[O-])n1CCO [MTZ]
n (% resistant) (Actinomyces turicensis): 1 (100.0) n (%)
n (% resistant) (Anaerococcus murdochii): 0 (0.0) n (%)
n (% resistant) (Clostridium sphenoides): 0 (0.0) n (%)
n (% resistant) [9]: 3 (100.0) n (%)
n (% resistant) (F. magna): 0 (0.0) n (%)
n (% resistant) (Peptoniphilus gorbachii): 0 (0.0) n (%)
n (% resistant) [10]: 1 (100.0) n (%)

SMILES: CN[C@H](CC(C)C)C(=O)N[C@H]1C(=O)N[C@@H](CC(N)=O)C(=O)N[C@H]2C(=O)N[C@H]3C(=O)N[C@H](C(=O)N[C@H](C(=O)O)c4cc(O)cc(O)c4-c4cc3ccc4O)[C@H](O)c3ccc(c(Cl)c3)Oc3cc2cc(c3O[C@@H]2O[C@H](CO)[C@@H](O)[C@H](O)[C@H]2O[C@H]2C[C@](C)(N)[C@H](O)[C@H](C)O2)Oc2ccc(cc2Cl)[C@H]1O [VAN]
MIC [1, 11]: 4 µg/mL
MIC ([1]; S. aureus isolate NRS 2): 0.5 µg/mL
MIC ([1]; S. aureus isolate NRS 3): 8 µg/mL
MIC ([1]; S. aureus isolate NRS 4): 4 µg/mL
MIC ([1]; S. aureus isolate NRS 13): 2 µg/mL
MIC ([1]; S. aureus isolate NRS 18): 4 µg/mL
MIC ([1]; S. aureus isolate NRS 22): 4 µg/mL
MIC [1, 12]: 2 µg/mL
MIC ([1]; S. aureus isolate NRS 27): 2 µg/mL
MIC [2]: 0.5 µg/mL
Mean MIC (S. aureus (MRSA, MSSA)): 1.25 mg/L
n (% resistant) (S. aureus (MRSA, MSSA)): 0 (0.0) n (%)
Mean MIC (S. epidermidis): 150 mg/L
n (% resistant) (S. epidermidis): 0 (0.0) n (%)
Mean MIC (Staphylococcus arlettae): 2.00 mg/L
n (% resistant) (Staphylococcus arlettae): 0 (0.0) n (%)
Mean MIC [3]: 1.00 mg/L
Mean MIC (Staphylococcus hominis): 2.00 mg/L
n (% resistant) (Staphylococcus hominis): 0 (0.0) n (%)
Mean MIC [4]: 0.83 mg/L
n (% resistant) [4]: 0 (0.0) n (%)
Mean MIC (Staphylococcus pasteuri): 1.00 mg/L
n (% resistant) (Staphylococcus pasteuri): 0 (0.0) n (%)
n (% resistant) [5]: 0 (0.0) n (%)
n (% resistant) (Corynebacterium jeikeium): 0 (0.0) n (%)
Mean MIC [6]: 1.00 mg/L
n (% resistant) [6]: 0 (0.0) n (%)
Mean MIC (Dermabacter hominis): 0.25 mg/L
n (% resistant) (Dermabacter hominis): 0 (0.0) n (%)
Mean MIC (Streptococcus oralis): 0.50 mg/L
n (% resistant) (Streptococcus oralis): 0 (0.0) n (%)
Mean MIC [7]: 0.12 mg/L
n (% resistant) [7]: 0 (0.0) n (%)
MIC QC range (in parentheses) [8]: (0.5-2) μg/mL
